# From US5891742A, “Affinity selection of ligands by mass spectroscopy” (Chiron Corporation, priority 1995, dated 1999)
# Columns and labels:
# uPAR = uPAR (Homo sapiens, UniProt Q03405); settings: individual N-substituted glycine peptoids
# Method: Human urokinase plasminogen activator receptor (UPAR) was expressed in a soluble, truncated form as described by Rosenberg et al., W094/28145, incorporated herein by reference. […] The ligand uPA1-48 was prepared as described in Rosenberg, supra.
# sUPAR = sUPAR (Homo sapiens, UniProt Q03405); settings: mixture 1 μM per compound, sUPAR 1 μM
# Sequence of sUPAR (Q03405 23-305): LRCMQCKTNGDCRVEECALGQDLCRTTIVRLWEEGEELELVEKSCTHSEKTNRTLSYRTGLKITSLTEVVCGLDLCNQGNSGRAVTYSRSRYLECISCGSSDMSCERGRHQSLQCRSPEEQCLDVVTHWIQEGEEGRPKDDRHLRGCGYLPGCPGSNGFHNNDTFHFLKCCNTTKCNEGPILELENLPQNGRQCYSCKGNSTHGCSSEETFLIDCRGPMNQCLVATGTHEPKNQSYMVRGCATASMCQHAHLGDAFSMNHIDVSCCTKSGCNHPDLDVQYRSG
# Method: The mixture (1 μM per compound) was contacted with sUPAR (1 μM) in the presence and absence of uPA1-48(2 μM), incubated for 30 minutes, and applied to a SEC HPLC column (Pharmacia HSIO/IO). The compound-target complex eluting in the excluded volume of the column was collected and analyzed on an ES MS (PE-Sciex).
# Sequence of uPAR (Q03405 23-305): as above
Substance,activity (affinity for uPAR) (uPAR),"selection as compound-target complex, detected by ES MS (sUPAR; absence of uPA1-48, 30 minutes, SEC HPLC excluded volume)","specificity of selection, by competition with ligand uPA1-48 (sUPAR; presence of uPA1-48 (2 μM))"
"1,4-benzodioxane",insignificant activity,,
diphenyl,,selected,specificity was confirmed by competition
